In patent publication US4464300A, “Triazolo benzazepines” (Hoffmann-La Roche Inc., priority 1981, dated 1984):

Key:
[1] = Anti-3-mercaptopropionic Acid Test; assay type: in vivo, female mice; details: Mus musculus, po, 0.5 h; p.o., mice, 30 minutes before 48.8 mg/kg i.p. 3-mercaptopropionic acid; Probit method
Protocol: The compound to be tested is administered orally to female mice (19-21 g) and 30 minutes later there are administered i.p. 48.8 mg/kg of 3-mercaptopropionic acid, a dosage which in untreated animals causes after 4 minutes emprosthotonus and tonic stretching of the hind limbs. 12 mice are used per dosage. At least 6 to 8 different dosages are tested. The number of protected test animals per dosage group is determined and the ED50 is determined therefrom by means of the Probit method.

[2] = system: spontaneous movements of rats; experiment: Determination of the Motor Activity; assay type: in vivo; details: Rattus norvegicus, po, 2 hours, dosage which reduces mobility to 40% of untreated animals
Protocol: Groups each comprising three rats (200 g) are confined in large cages. The test animals can adapt themselves to the new surroundings for 30 minutes; subsequently the test substance is administered to them orally. The spontaneous movements are registered automatically for 2 hours by means of infrared light barriers. The ED40 is that dosage which reduces to 40% the mobility of the test animals in comparison to the untreated animals.

[3] = acute toxicity, single oral administration to mice; details: mouse, in vivo, p.o.
From the text: Some representative members of the class of compound defined by formula I have been investigated in the tests described below, and it has been shown that in rats and monkeys they display pronounced anxiolytic properties. Moreover, the Table contains data concerning the acute toxicity of these compounds (LD50 in the case of single oral administration to mice).

rats = experiment: Conflict Test in Rats; assay type: in vivo; details: Rattus norvegicus, po, 30 minutes before 1-hour conflict test; Wilcoxon test; read-out: Conflict test in rats, FSD (first significant anxiolytically-effective dosage)
Protocol: The test apparatus is a one-key Skinner box with a feed pellet dispenser. For the testing of potential anxiolytics there are generally used 8 fasted rats per substance and dosage. In this case, there are used rats only which respond to the known anxiolytic chlordiazepoxide.
The test substances, which are dissolved or suspended in a mixture of 10 ml of distilled water and 2 drops of Tween 80, are administered to the test animals with the aid of a probang 30 minutes before the 1-hour conflict test. During the experiment, in which each key press for a feed pellet is combined with a foot-shock (conflict), the number of key operations is registered. In this case, each test animal serves as its own control, in that it is pre-treated once with test substance and once with sodium chloride solution.
The first significant anxiolytically-effective dosage (FSD) is determined with the Wilcoxon test (comparison of pairs) by comparing the number of key operations in the main test (feed pellet+foot-shock, after pre-treatment with test substance) directly with the number of key operations in the control test (feed pellet+foot-shock, after pre-treatment with sodium chloride solution).

squirrel monkeys = experiment: Conflict Test in Monkeys; assay type: in vivo, male squirrel monkeys; details: for minimal effective dose: Saimiri, in Primates, po, read-out: Conflict test in monkeys, MED (smallest significant effective dosage); for Conflict test in monkeys, HED (highest significant effective dosage): p.o.
Protocol: A two-key Skinner box with a feed pellet dispenser is used as the test apparatus. 13 fasted, male squirrel monkeys weighing 0.8 to 1 kg are used as the test animals. Upon pressing one of the keys the test animals receive a feed pellet on average every 6 minutes. Upon pressing the other key the test animals receive a feed pellet four times more frequently (i.e. on average every 1.5 minutes), but they are simultaneously punished with an electric foot-shock. The foot-shock causes a reduction in the pressing of the key which gives more frequent feed pellets. […] The smallest (MED) and the highest significant effective dosage (HED) are thereby determined.

Anti-pentetrazole Test = assay type: in vivo, female mice; details: Mus musculus, po, 0.5 h; p.o., mice, 30 minutes before i.v. pentetrazole; dosage giving convulsive threshold ratio treated:untreated of 2:1; read-out: Anti-pentetrazole test, PR 2.0
Protocol: The compound to be tested is administered orally to groups of 6 female mice (19-21 g) and 30 minutes later there is administered intravenously (0.375 ml/minute) a 0.5 percent solution of pentetrazole in sodium chloride solution. The time from the beginning of the infusion until tonic stretchings of the hind limbs appear is measured and therefrom there is calculated the dosage of penetetrazole administered up to this point in time, which is denoted as the convulsive threshold dosage. The PR2.0 is that dosage of the test substance which is required in order that the ratio of the convulsive threshold dosage in treated animals to the convulsive threshold dosage in untreated animals amounts to 2:1.

SMILES | ED50 [1] [mg/kg] | ED40 [2] [mg/kg] | LD50 [3] [mg/kg] | minimal effective dose (rats) [mg/kg] | minimal effective dose (squirrel monkeys) [mg/kg] | Conflict test in monkeys, HED (highest significant effective dosage) (squirrel monkeys) [mg/kg] | ED (2-fold convulsive threshold) (Anti-pentetrazole Test) [mg/kg]
O=c1[nH]nc2n1-c1ccc(Cl)cc1C(c1ccccc1F)=CC2 [Compound A, 8-chloro-6-(2-fluorophenyl)-2,4-dihydro-1H-s-triazolo[4,3-a][1]benzazepin-1-one] | 6 | > 300 | > 5000 | 3 | 1.25 | > 80 | 4.1
NCc1nnc2n1-c1ccc(Cl)cc1C(c1ccccc1F)=CC2 [Compound B, 1-(aminomethyl)-8-chloro-6-(2-fluorophenyl)-4H-s-triazolo[4,3-a][1]benzazepine] | 3.7 | > 100 | 1000 to 2000 | 100 | 1.25 | 10 | 5.8
Cc1nnc2n1-c1ccc(Cl)cc1C(c1ccccc1F)=CC2 [Compound C, 8-chloro-6-(2-fluorophenyl)-1-methyl-4H-s-triazolo[4,3-a][1]benzazepine] | 1.9 | 77 | > 5000 | 3 | 10 | > 80 | 4
